How the values were obtained:
Format in all cases: biochemical
BTK = target: T1, BTK (Homo sapiens, UniProt Q06187); experiment: In vitro BTK kinase assay (BTK-POLYGAT-LS); conditions: IC50 (10 uM ATP)
T1 construct: purchased Upstate 14-552
Summary of the method: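 Poly-GAT peptide at 100 nM with 10 μM ATP (final) in pH 7.5 Tris buffer containing MgCl2, DTT, Triton X-100 and 0.2 mg/ml casein.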

Tec = target: T2, Tec (Homo sapiens, UniProt P42680); experiment: In vitro Tec kinase selectivity assay (Tec-POLYGT-LS); conditions: ATP 25 μM
T2 construct: purchased Carna Biosciences 08-182
T2 sequence (P42680 1-631): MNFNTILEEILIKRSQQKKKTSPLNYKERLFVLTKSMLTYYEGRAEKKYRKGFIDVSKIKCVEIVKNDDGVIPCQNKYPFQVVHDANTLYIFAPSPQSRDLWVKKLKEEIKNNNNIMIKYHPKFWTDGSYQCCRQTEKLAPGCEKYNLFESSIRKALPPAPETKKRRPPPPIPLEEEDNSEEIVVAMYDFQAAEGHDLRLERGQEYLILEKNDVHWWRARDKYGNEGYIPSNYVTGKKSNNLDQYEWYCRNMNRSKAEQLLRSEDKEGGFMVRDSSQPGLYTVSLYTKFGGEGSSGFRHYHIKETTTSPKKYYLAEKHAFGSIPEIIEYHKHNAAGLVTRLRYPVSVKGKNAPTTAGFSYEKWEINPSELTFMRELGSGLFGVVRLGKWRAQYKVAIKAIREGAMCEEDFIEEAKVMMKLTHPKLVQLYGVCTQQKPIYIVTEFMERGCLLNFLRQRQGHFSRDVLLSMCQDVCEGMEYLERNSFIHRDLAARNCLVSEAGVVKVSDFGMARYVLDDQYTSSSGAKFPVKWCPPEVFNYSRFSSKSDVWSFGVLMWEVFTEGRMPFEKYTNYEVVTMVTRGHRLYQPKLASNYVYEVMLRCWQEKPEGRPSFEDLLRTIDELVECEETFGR
Method: In Vitro Tec Kinase Selectivity Assay
(§1) The purpose of the Tec in vitro assay is to determine compound potency against Tec through the measurement of IC50. Compound inhibition is measured after monitoring the amount of phosphorylation of a fluorescein-labeled polyGT peptide (Invitrogen PV3610) in the presence of active Tec enzyme (Carna Biosciences 08-182), ATP, and inhibitor. The Tec kinase reaction was done in a black 96 well plate (costar 3694). For a typical assay, a 29 μL aliquot of a ATP/peptide master mix (final concentration; ATP 25 μM, polyGT 100 nM) in kinase buffer (10 mM Tris-HCl pH 7.5, 10 mM MgCl2, 200 μM Na3PO4, 5 mM DTT, 0.01% Triton X-100, and 0.2 mg/ml casein) is added to each well. Next, 1 μL of a 3-fold, 50× compound titration in 100% DMSO solvent is added, followed by adding 20 uL of Tec enzyme mix in 1× kinase buffer (with a final concentration of 0.125 nM). The assay is incubated for 15 minutes before being stopped with 5 μl, of a 220 mM EDTA solution. Aliquots (5 μL) of the kinase reaction are transferred to a low volume white 384 well plate (Corning 3674), and 5 μL of a 2× detection buffer (Invitrogen PV3574, with 2 nM Tb-PY20 antibody, Invitrogen PV3552) is added. The plate is covered and incubated for 45 minutes at room temperature. Time resolved fluorescence (TRF) on Molecular Devices M5 (332 nm excitation; 488 nm emission; 518 nm fluorescein emission) is measured.

Itk = target: T3, Itk (Homo sapiens, UniProt Q08881); experiment: Itk kinase selectivity assay (Example 142 procedure, Table 3 modifications); conditions: ATP 10 μM
T3 construct: purchased Carna Bioscience 08-181
T3 sequence (Q08881 1-620): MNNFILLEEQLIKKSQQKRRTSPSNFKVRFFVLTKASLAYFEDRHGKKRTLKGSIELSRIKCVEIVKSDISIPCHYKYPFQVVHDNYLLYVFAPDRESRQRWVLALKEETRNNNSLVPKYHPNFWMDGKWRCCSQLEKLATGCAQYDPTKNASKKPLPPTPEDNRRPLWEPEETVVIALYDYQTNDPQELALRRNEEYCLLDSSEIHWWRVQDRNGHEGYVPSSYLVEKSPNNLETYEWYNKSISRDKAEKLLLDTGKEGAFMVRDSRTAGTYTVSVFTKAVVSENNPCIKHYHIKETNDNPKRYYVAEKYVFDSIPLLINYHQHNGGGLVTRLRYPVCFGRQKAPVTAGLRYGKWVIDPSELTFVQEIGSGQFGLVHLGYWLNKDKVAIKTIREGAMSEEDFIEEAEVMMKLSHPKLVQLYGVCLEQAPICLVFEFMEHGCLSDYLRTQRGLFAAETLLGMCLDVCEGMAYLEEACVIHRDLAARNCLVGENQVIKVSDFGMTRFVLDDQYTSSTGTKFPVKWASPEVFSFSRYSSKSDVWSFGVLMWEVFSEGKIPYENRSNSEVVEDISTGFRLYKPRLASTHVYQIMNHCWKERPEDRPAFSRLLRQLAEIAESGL
Method: as §1
(§2) Using the procedure described in Example 142, with the modifications shown in Table 3, selectivity for Itk, Txk, and Lck was measured.

Lck = target: T4, Lck (Homo sapiens, UniProt P06239); experiment: Lck kinase selectivity assay (Example 142 procedure, Table 3 modifications); conditions: ATP 5 μM
T4 construct: purchased Carna Bioscience 08-170
T4 sequence (P06239 whole entry): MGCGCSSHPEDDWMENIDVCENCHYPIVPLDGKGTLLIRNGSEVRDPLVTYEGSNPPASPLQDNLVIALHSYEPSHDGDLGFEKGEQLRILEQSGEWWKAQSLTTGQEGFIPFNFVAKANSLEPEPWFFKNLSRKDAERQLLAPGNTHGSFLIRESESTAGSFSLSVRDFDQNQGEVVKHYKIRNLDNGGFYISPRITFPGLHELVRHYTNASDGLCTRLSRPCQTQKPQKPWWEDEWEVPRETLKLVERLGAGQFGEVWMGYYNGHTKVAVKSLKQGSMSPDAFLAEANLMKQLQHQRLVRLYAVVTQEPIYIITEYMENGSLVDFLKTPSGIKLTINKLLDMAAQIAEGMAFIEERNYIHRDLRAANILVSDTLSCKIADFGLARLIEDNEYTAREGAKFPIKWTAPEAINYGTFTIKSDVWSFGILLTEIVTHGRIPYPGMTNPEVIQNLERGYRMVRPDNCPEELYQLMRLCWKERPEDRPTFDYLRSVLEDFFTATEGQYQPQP
Method: as §1, §2

Txk = target: T5, Txk (Homo sapiens, UniProt P42681); experiment: Txk kinase selectivity assay (Example 142 procedure, Table 3 modifications); conditions: ATP 100 μM
T5 construct: purchased Carna Bioscience 08-183
T5 sequence (P42681 1-527): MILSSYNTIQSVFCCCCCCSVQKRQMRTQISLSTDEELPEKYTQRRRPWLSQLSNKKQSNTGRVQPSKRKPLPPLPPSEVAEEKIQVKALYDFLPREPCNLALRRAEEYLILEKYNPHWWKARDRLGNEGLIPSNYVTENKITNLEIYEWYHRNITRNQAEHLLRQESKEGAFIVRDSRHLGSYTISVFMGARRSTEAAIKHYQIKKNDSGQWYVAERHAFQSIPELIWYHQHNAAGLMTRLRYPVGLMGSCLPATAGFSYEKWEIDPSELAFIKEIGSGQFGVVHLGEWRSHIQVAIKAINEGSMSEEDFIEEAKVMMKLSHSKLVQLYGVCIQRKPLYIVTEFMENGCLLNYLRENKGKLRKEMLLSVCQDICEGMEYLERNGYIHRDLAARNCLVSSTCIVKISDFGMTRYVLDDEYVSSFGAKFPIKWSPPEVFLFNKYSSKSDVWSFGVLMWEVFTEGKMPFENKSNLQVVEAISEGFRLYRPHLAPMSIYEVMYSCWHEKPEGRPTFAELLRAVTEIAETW
Method: as §1, §2

T1 sequence (Q06187 whole entry): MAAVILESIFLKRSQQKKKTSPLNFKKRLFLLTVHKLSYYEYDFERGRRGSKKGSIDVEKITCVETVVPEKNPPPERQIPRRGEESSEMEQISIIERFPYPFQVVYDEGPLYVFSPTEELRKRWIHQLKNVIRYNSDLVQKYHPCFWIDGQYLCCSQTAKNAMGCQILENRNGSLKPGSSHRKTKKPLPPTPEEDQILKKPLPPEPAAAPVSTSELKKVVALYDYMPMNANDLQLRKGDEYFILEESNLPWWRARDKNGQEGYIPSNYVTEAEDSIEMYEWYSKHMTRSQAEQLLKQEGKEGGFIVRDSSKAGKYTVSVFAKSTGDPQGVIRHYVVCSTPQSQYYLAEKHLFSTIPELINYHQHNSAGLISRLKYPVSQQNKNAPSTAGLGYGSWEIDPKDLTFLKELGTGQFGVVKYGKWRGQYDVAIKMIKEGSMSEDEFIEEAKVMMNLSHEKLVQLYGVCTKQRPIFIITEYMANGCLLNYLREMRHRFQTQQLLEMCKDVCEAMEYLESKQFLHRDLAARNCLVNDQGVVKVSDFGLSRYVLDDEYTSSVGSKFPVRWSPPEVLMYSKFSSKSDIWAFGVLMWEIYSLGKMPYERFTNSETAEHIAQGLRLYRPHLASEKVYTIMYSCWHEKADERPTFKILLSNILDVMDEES

Q: For O=C(CNc1cc(Cl)cc(Cl)c1)N1Cc2ccccc2C(Nc2ncnc3[nH]ccc23)C1 (stereo not shown) [Compound 96], which IC50 (BTK) is on record?
A: < 100 nM

Q: What about the IC50 (Tec) of the same compound?
A: 100 to 999 nM

Q: What about the IC50 (Itk) of the same compound?
A: 100 to 999 nM

Q: What about the IC50 (Lck) of the same compound?
A: 100 to 999 nM

Q: What about the IC50 (Txk) of the same compound?
A: > 10000 nM

Q: What does the source list for CC[C@@H](Nc1cc(Cl)cc(Cl)c1)C(=O)N1CCC2CCN(c3ncnc4[nH]ccc34)C2C1 (stereo partly shown) [Compound 99]?
A: IC50 (BTK): < 100 nM; IC50 (Tec): 100 to 999 nM; IC50 (Itk): 100 to 999 nM; IC50 (Lck): 100 to 999 nM; IC50 (Txk): 1000 to 10000 nM

Q: With CCC[C@@H](Nc1cc(F)cc(Cl)c1)C(=O)N1CCC2CCN(c3ncnc4[nH]ccc34)C2C1 (stereo partly shown) [Compound 100] as the compound, how does the IC50 (BTK) read?
A: < 100 nM

Q: What about the IC50 (Tec) of the same compound?
A: 100 to 999 nM

Q: And the IC50 (Itk)?
A: 100 to 999 nM

Q: What about the IC50 (Lck) of the same compound?
A: 100 to 999 nM

Q: What about the IC50 (Txk) of the same compound?
A: 1000 to 10000 nM

Q: O=C(CNc1ccccc1S(=O)(=O)N1CCCCC1)N1CCC2CCN(c3ncnc4[nH]ccc34)C2C1 (stereo not shown) [Compound 113] was tested. Which IC50 (Tec) did it give?
A: 1000 to 10000 nM

Q: What about the IC50 (Itk) of the same compound?
A: 1000 to 10000 nM

Q: And the IC50 (Lck)?
A: > 10000 nM

Q: What about the IC50 (Txk) of the same compound?
A: 1000 to 10000 nM

Q: What does the source list for O=C(CNc1ccccc1S(=O)(=O)c1ccccc1)N1CCC2CCN(c3ncnc4[nH]ccc34)C2C1 (stereo not shown) [Compound 114]?
A: IC50 (Tec): 100 to 999 nM; IC50 (Itk): 100 to 999 nM; IC50 (Lck): > 10000 nM; IC50 (Txk): 100 to 999 nM

Q: For O=C(CNc1cc(Cl)cc(Cl)c1)N1CC[C@H]2CCN(c3ncnc4[nH]ccc34)[C@H]2C1 [Compound 123], which IC50 (Tec) is on record?
A: < 100 nM

Q: What about the IC50 (Itk) of the same compound?
A: < 100 nM

Q: What about the IC50 (Lck) of the same compound?
A: 100 to 999 nM

Q: What about the IC50 (Txk) of the same compound?
A: 100 to 999 nM

Q: For O=C(CNc1cc(Cl)cc(Cl)c1)N1CC[C@@H]2CCN(c3ncnc4[nH]ccc34)[C@@H]2C1 [Compound 124], which IC50 (Tec) is on record?
A: < 100 nM

Q: What about the IC50 (Itk) of the same compound?
A: 100 to 999 nM

Q: And the IC50 (Lck)?
A: 100 to 999 nM

Q: And the IC50 (Txk)?
A: 100 to 999 nM

Q: With CN(c1ncnc2[nH]ccc12)C1CCCCN(C(=O)CNc2cc(Cl)cc(Cl)c2)C1 (stereo not shown) [Compound 143] as the compound, how does the IC50 (Tec) read?
A: > 10000 nM

Q: And the IC50 (Itk)?
A: > 10000 nM

Q: What about the IC50 (Lck) of the same compound?
A: > 10000 nM

Q: And the IC50 (Txk)?
A: > 10000 nM

Q: What does the source list for CN(c1ncnc2[nH]ncc12)C1CCCCN(C(=O)CNc2cc(Cl)cc(Cl)c2)C1 (stereo not shown) [Compound 167]?
A: IC50 (Tec): 100 to 999 nM; IC50 (Itk): 1000 to 10000 nM; IC50 (Lck): 1000 to 10000 nM; IC50 (Txk): > 10000 nM

Q: O=C(CNc1cc(Cl)cc(Cl)c1)N1CC2CC(Nc3ncnc4[nH]ccc34)C1C2 (stereo not shown) [Compound 174] was tested. Which IC50 (BTK) did it give?
A: < 100 nM

Q: And the IC50 (Tec)?
A: > 10000 nM

Q: What about the IC50 (Itk) of the same compound?
A: > 10000 nM

Q: What about the IC50 (Lck) of the same compound?
A: > 10000 nM

Q: And the IC50 (Txk)?
A: > 10000 nM

Q: Which results are given for O=C([C@H](Nc1cc(Cl)cc(Cl)c1)C1CC1)N1CCC2CCN(c3ncnc4[nH]ccc34)C2C1 (stereo partly shown) [Compound 176]?
A: IC50 (BTK): < 100 nM; IC50 (Tec): 1000 to 10000 nM; IC50 (Itk): 1000 to 10000 nM; IC50 (Lck): 100 to 999 nM; IC50 (Txk): 1000 to 10000 nM

Q: What does the source list for O=C(CNc1cc(Cl)cc(Cl)c1)N1CCC2CCN(c3ncnc4[nH]ccc34)C2C1 (stereo not shown) [Compound 183]?
A: IC50 (Tec): < 100 nM; IC50 (Itk): < 100 nM; IC50 (Lck): 100 to 999 nM; IC50 (Txk): 100 to 999 nM

Q: What does the source list for O=C(CNc1cc(Cl)cc(Cl)c1)N1CCC2CCN(c3ncnc4[nH]ncc34)C2C1 (stereo not shown) [Compound 192]?
A: IC50 (BTK): < 100 nM; IC50 (Tec): 100 to 999 nM; IC50 (Itk): 100 to 999 nM; IC50 (Lck): 100 to 999 nM; IC50 (Txk): 1000 to 10000 nM

Q: With CN(c1ncnc2[nH]ccc12)[C@@H]1CCCN(C(=O)CNc2cc(Cl)cc(Cl)c2)C1 [Compound 209] as the compound, how does the IC50 (Tec) read?
A: 100 to 999 nM

Q: What about the IC50 (Itk) of the same compound?
A: 100 to 999 nM

Q: And the IC50 (Lck)?
A: 100 to 999 nM

Q: What about the IC50 (Txk) of the same compound?
A: 1000 to 10000 nM

Q: Which IC50 (BTK) does the source give for CC(C)CN(CC(C)C)S(=O)(=O)c1ccccc1NCC(=O)N1CCC[C@@H](Nc2ncnc3[nH]ncc23)C1 [Compound 217] here?
A: < 100 nM

Q: What about the IC50 (Tec) of the same compound?
A: 100 to 999 nM

Q: And the IC50 (Itk)?
A: 100 to 999 nM

Q: And the IC50 (Lck)?
A: 1000 to 10000 nM

Q: And the IC50 (Txk)?
A: 1000 to 10000 nM

Q: What does the source list for O=C(CNc1cc(Cl)cc(Cl)c1)N1CCC[C@@H](Nc2ncnc3[nH]ccc23)C1 [Compound 220]?
A: IC50 (Tec): 100 to 999 nM; IC50 (Itk): 1000 to 10000 nM; IC50 (Lck): > 10000 nM; IC50 (Txk): > 10000 nM

Q: For O=C(CNc1cc(Cl)cc(Cl)c1)N1CCC[C@@H](Nc2ncnc3[nH]ncc23)C1 [Compound 222], which IC50 (BTK) is on record?
A: < 100 nM

Q: And the IC50 (Tec)?
A: 100 to 999 nM

Q: What about the IC50 (Itk) of the same compound?
A: 1000 to 10000 nM

Q: What about the IC50 (Lck) of the same compound?
A: 1000 to 10000 nM

Q: And the IC50 (Txk)?
A: > 10000 nM
